Measurements taken from patent US7232835B2, “3,6-Disubstituted azabicyclo derivatives as muscarinic receptor antagonists” (Ranbaxy Laboratories Limited, priority 2002, dated 2007).
Like-named read-outs stand apart in the source and are kept apart here.

How the values were obtained:
[1] = target: T1, M3 muscarinic receptor (Rattus norvegicus, UniProt P08483); experiment: [3H]-N-methylscopolamine radioligand binding assay, rat submandibular gland membranes; parameters: Receptor Binding Assay Selectivity: reference not given here; conditions: for Ki / M3 Pki: rat submandibular gland, [3H]NMS
T1 construct: Submandibular glands and heart were isolated and placed in ice cold homogenising buffer; from tissue; host or cells: rat submandibular gland membrane homogenate
T1 sequence (P08483 whole entry): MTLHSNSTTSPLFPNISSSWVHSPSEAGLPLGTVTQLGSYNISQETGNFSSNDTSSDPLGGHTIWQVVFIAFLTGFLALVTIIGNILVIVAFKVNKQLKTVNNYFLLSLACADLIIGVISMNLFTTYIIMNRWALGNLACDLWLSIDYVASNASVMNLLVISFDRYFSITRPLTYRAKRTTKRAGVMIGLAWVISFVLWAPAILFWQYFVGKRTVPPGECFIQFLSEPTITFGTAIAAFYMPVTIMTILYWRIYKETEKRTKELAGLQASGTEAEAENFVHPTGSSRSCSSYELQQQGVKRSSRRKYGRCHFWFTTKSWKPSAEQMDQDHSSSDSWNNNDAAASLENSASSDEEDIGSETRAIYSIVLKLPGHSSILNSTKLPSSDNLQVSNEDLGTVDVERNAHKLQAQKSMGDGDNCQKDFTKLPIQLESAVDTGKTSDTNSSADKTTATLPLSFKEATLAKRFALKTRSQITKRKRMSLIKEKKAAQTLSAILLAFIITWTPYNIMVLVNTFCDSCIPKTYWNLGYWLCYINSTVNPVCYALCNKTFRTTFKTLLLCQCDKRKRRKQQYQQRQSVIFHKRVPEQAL

[2] = target: T2, M2 muscarinic receptor (Rattus norvegicus, UniProt P10980); experiment: [3H]-N-methylscopolamine radioligand binding assay, rat heart membranes
T2 construct: Submandibular glands and heart were isolated and placed in ice cold homogenising buffer; from tissue; host or cells: rat heart membrane homogenate
T2 sequence (P10980 1-466): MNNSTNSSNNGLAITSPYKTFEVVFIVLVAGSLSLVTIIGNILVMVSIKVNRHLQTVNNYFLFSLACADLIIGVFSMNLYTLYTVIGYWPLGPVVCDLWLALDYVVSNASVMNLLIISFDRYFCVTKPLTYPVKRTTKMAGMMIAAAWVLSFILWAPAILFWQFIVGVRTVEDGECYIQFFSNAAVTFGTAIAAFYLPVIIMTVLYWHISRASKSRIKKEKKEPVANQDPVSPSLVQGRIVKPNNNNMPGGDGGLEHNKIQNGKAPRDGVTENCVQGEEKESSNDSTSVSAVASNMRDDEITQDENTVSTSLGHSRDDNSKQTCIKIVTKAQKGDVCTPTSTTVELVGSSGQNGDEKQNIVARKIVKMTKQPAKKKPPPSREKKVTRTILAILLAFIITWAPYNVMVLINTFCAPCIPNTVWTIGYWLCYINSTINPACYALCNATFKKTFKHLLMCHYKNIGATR

[3] = test system: isolated rat bladder; experiment: tissue or blood; type: cell-based
[4] = Table III, read-out: M3 Ki (nm)
[5] = Table II, rat bladder strips, antagonism of carbachol contraction, read-out: Functional Assay KB
[6] = Table III, rat bladder strips, antagonism of carbachol contraction, read-out: Rat Bladder pKB (converted)
[7] = Table III, rat heart, [3H]NMS, read-out: M2 Ki (nm)
[8] = Table IV, read-out: Receptor Binding Assay (pKi) M3 (converted)
[9] = Table IV, rat heart, [3H]NMS, read-out: Receptor Binding Assay (pKi) M2 (converted)

Row | SMILES | Ki [1, 4] [nM] | Ki [2, 7] [nM] | Ki [1, 8] [nM] | Ki [2, 9] [nM] | other results
1 | O=C(N[C@H]1[C@@H]2CN(Cc3ccccc3)C[C@@H]21)C(O)(c1ccccc1)C1CCCCC1 (stereo partly drawn) [Compound No. 22, (1α,5α,6α)-6-N-(3-azabicyclo[3.1.0]hexyl-3-benzyl)-2-cyclohexyl-2-hydroxy-2-phenyl acetamide] | 94 |  |  |  | Receptor Binding Assay Selectivity [1]: 24.07; Ki ([1]; Table II, read-out: Receptor Binding Assay Ki (nM) M 3): 94 nM; Ki ([2]; M2 Ki (nm)): 2260 nM; Ki ([2]; Receptor Binding Assay Ki (nM) M2): 2260 nM; Kb [3, 5]: 27.5 nM; Kb [3, 6]: 26.9 nM
2 | O=C(NC1C2CN(Cc3cc(F)cc(F)c3)CC21)C(O)(c1ccccc1)C1CCCCC1 (stereo not drawn) [Compound No. 23, (1α,5α,6α)-6-N-(3-azabicyclo[3.1.0]hexyl-3-(3,5-difluorobenzyl))-2-cyclohexyl-2-hydroxy-2-phenyl acetamide] | 530 | > 1000 |  |  | Kb [3, 6]: 2290 nM
3 | O=C(NC1C2CN(CCc3ccc4c(c3)CCO4)CC21)C(O)(c1ccccc1)C1CCCCC1 (stereo not drawn) [Compound No. 28, (1α,5α,6α)-6-N-(3-azabicyclo[3.1.0]hexyl-3-(2-(2,3-dihydrobenzofuran-5-yl)ethyl))-2-cyclohexyl-2-hydroxy-2-phenyl acetamide] | 150 | > 1000 |  |  | 
4 | O=C(NC1C2CN(CCc3ccc4c(c3)OCO4)CC21)C(O)(c1ccccc1)C1CCCCC1 (stereo not drawn) [Compound No. 29, (1α,5α,6α)-6-N-(3-azabicyclo[3.1.0]hexyl-3-(2-(3,4-methylenedioxyphenyl)ethyl))-2-cyclohexyl-2-hydroxy-2-phenyl acetamide] | 97 | > 1000 |  |  | 
5 | O=C(Cc1ccc2c(c1)CCO2)N1CC2C(C1)C2NC(=O)C(O)(c1ccccc1)C1CCCCC1 (stereo not drawn) [Compound No. 30, (1α,5α,6α)-6-N-(3-azabicyclo[3.1.0]hexyl-3-(1-(2,3-dihydrobenzofuran-5-yl)acetyl))-2-cyclohexyl-2-hydroxy-2-phenyl acetamide] | 833 |  |  |  | M3 Pki ([1]; Table III): 6.08; M2 pKi ([2]; Table III, rat heart, [3H]NMS): <5
6 | O=C(NC1C2CN(CCc3ccc4occc4c3)CC21)C(O)(c1ccccc1)C1CCCCC1 (stereo not drawn) [Compound No. 31, (1α,5α,6α)-6-N-(3-azabicyclo[3.1.0]hexyl-3-(2-(benzofuran-5-yl)ethyl))-2-cyclohexyl-2-hydroxy-2-phenyl acetamide] | 233 | 1590 |  |  | 
7 | CC(C)(C)c1ccc(C(O)(C(=O)NC2C3CN(Cc4ccccc4)CC32)C2CCCCC2)cc1 (stereo not drawn) [Compound No. 55, (1α,5α,6α)-6-N-(3-azabicyclo[3.1.0]hexyl-3-benzyl)-2-cyclohexyl-2-hydroxy-2-(4-tertbutylphenyl)acetamide] | 380 | > 1000 |  |  | 
8 | O=C(N[C@H]1[C@@H]2CN(CCc3ccc4c(c3)CCO4)C[C@@H]21)C(O)(c1ccccc1)C1CCCC1 (stereo partly drawn) [Compound No. 68, (1α,5α,6α)-6-N-(3-azabicyclo[3.1.0]hexyl-3-(2-(2,3-dihydrobenzofuran-5-yl)ethyl))-2-cyclopentyl-2-hydroxy-2-phenyl acetamide] | 108 | > 1000 |  |  | 
9 | Cc1cccc(N2CC3C(C2)C3NC(=O)C(O)(c2ccccc2)C2CCCC2)n1 (stereo not shown) [Compound No. 69] | 1420 | > 10000 |  |  | M3 Pki ([1]; Table III): 5.85; M2 pKi ([2]; Table III, rat heart, [3H]NMS): <5
10 | O=C(Cc1ccc2c(c1)CCO2)N1CC2C(C1)C2NC(=O)C(O)(c1ccccc1)C1CCCC1 (stereo not drawn) [Compound No. 70, (1α,5α,6α)-6-N-(3-azabicyclo[3.1.0]hexyl-3-(1-(2,3-dihydrobenzofuran-5-yl)acetyl))-2-cyclopentyl-2-hydroxy-2-phenyl acetamide] | 750 | > 10000 |  |  | M3 Pki ([1]; Table III): 6.12; M2 pKi ([2]; Table III, rat heart, [3H]NMS): <5
11 | O=C(N[C@H]1[C@@H]2CNC[C@@H]21)C(O)(c1ccccc1)C1CCCCC1 (stereo partly drawn) [Compound No. 85, (1α,5α,6α)-6-N-(3-azabicyclo[3.1.0]hexyl)-2-cyclohexyl-2-hydroxy-2-phenylacetamide] |  |  | > 1000 | > 1000 | 
12 | O=C(NC1C2CNCC21)C(O)(c1ccc(F)cc1)C1CCCCC1 (stereo not drawn) [Compound No. 86, (1α,5α,6α)-6-N-(3-azabicyclo-[3.1.0]hexyl)-2-cyclohexyl-2-hydroxy-2-(4-Fluorophenyl)acetamide] |  |  | > 1000 | > 1000 | 
13 | COc1ccc(C(O)(C(=O)NC2C3CNCC32)C2CCCCC2)cc1 (stereo not drawn) [Compound No. 87, (1α,5α,6α)-6-N-(3-azabicyclo-[3.1.0]hexyl)-2-cyclohexyl-2-hydroxy-2-(4-methyoxyphenyl)acetamide] |  |  | > 1000 | > 1000 | 
14 | Cc1ccc(C(O)(C(=O)N[C@H]2[C@@H]3CNC[C@@H]32)C2CCCCC2)cc1 (stereo partly drawn) [Compound No. 88, (1α,5α,6α)-6-N-(3-azabicyclo-[3.1.0]hexyl)-2-cyclohexyl-2-hydroxy-2-(4-methylphenyl)acetamide] |  |  | > 1000 | > 1000 | 
15 | O=C(NC1C2CNCC21)C(O)(c1ccccc1)C1CCCC1 (stereo not drawn) [Compound No. 89, (1α,5α,6α)-6-N-(3-azabicyclo-[3.1.0]hexyl)-2-cyclopentyl-2-hydroxy-2-phenylacetamide] |  |  | > 1000 | > 1000 | 
16 | O=C(N[C@H]1[C@@H]2CNC[C@@H]21)C(O)(c1ccccc1)C1CCCCCC1 (stereo partly drawn) [Compound No. 90, (1α,5α,6α)-6-N-(3-azabicyclo[3.1.0]hexyl)-2-cycloheptyl-2-hydroxy-2-phenylacetamide] |  |  | 363 | > 1000 | 
17 | O=C(N[C@H]1[C@@H]2CNC[C@@H]21)C(O)(c1ccccc1)C1CCC1 (stereo partly drawn) [Compound No. 91, (1α,5α,6α)-6-N-(3-azabicyclo[3.1.0]hexyl)-2-cyclobutyl-2-hydroxy-2-phenylacetamide] |  |  | 2750 | 100000 | 
18 | O=C(N[C@H]1[C@@H]2CNC[C@@H]21)C(O)(c1ccccc1)C1CC1 (stereo partly drawn) [Compound No. 92, (1α,5α,6α)-6-N-(3-azabicyclo-[3.1.0]hexyl)-2-cyclopropyl-2-hydroxy-2-phenylacetamide] |  |  | > 10000 | > 10000 | 
19 | CC(C)(C)OC(=O)N(CCCCOC(=O)C(O)(c1ccc(F)cc1)c1ccc(F)cc1)C1C2CNCC21 (stereo not drawn) [Compound No. 95, (1α,5α,6α)-4-[6-N-(3-azabicyclo[3.1.0]hexyl)]-N-(tert-butyloxycarbonyl)butyl-1-[2-hydroxy-2,2-bis-(4-fluorophenyl)]acetate] |  |  | > 1000 | > 1000 | 
20 | CCCOC(C(=O)OCCCCN(C(=O)OC(C)(C)C)C1C2CNCC21)(c1ccc(F)cc1)c1ccc(F)cc1 (stereo not drawn) [Compound No. 96, (1α,5α,6α)-4-[6-N-(3-azabicyclo-[3.1.0]hexyl)]-N-(tert-butyloxycarbonyl)butyl-1-[2-propyloxy-2,2-bis-(4-fluorophenyl)]acetate] |  |  | > 1000 | > 1000 | 
21 | O=C(N[C@H]1[C@@H]2CNC[C@@H]21)C(c1ccccc1)c1ccccc1 [Compound No. 97, (1α,5α,6α)-6N-(3-azabicyclo-[3.1.0]hexyl)-2,2-diphenyl acetamide] |  |  | > 1000 | > 1000 | 
22 | COC(C(=O)NC1C2CNCC21)(c1ccccc1)C1CCCCC1 (stereo not drawn) [Compound No. 98, (1α,5α,6α)-6N-(3-azabicyclo-[3.1.0]hexyl)-2-cyclohexyl-2-methoxy-2-phenyl acetamide] |  |  | > 1000 | > 1000 | 
23 | CCN(CC)CC#CCOC(=O)C(O)(c1ccccc1)C1CCCCC1 (stereo not shown) [Oxybutynin, oxybutynin, reference compound] |  |  |  |  | Kb [3, 5]: 2 nM
24 | Cc1ccc(O)c([C@H](CCN(C(C)C)C(C)C)c2ccccc2)c1 [Tolterodine, tolterodine, reference compound] |  |  |  |  | Kb ([3]; Rattus norvegicus, read-out: Functional Assay KB (nM)): 2 nM; Kb ([3]; Rattus norvegicus, read-out: Rat Bladder pKB (converted)): 1e+07 nM
